Reference: ChEMBL document CHEMBL1201862, “PubChem BioAssay data set” (2004)
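Dose response: 5 concentrations. Exposure: 48 h. Format: 96-well plates. Endpoint: linear interpolation; highest concentration if not reached. Here, GI50 denotes the concentration required for 50% inhibition of growth.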 Activity calls are given as the source filed them. Rule as the data show it: active = GI50 up to about 1.1 µM and inactive = higher.

Tests used:
Test in all cases: NCI-60 cell line screen, 48 h
[1] = test system: 786-0
[2] = test system: A498
[3] = test system: A549
[4] = test system: ACHN
[5] = test system: CAKI-1
[6] = test system: CCRF-CEM
[7] = test system: COLO 205
[8] = test system: DLD-1
[9] = test system: DMS-114
[10] = test system: DMS-273
[11] = test system: EKVX
[12] = test system: HCC 2998
[13] = test system: HCT-116
[14] = test system: HCT-15
[15] = test system: HL-60
[16] = test system: HOP-62
[17] = test system: HOP-92
[18] = test system: HT-29
[19] = test system: IGROV-1
[20] = test system: K562
[21] = test system: KM-20L2
[22] = test system: KM12
[23] = test system: LOX IMVI
[24] = test system: LXFL 529
[25] = test system: M14
[26] = test system: M19-MEL
[27] = test system: MOLT-4
[28] = test system: NCI-H226
[29] = test system: NCI-H23
[30] = test system: NCI-H460
[31] = test system: NCI-H522
[32] = test system: OVCAR-4
[33] = test system: OVCAR-5
[34] = test system: OVCAR-8
[35] = test system: RPMI-8226
[36] = test system: SF-268
[37] = test system: SF-295
[38] = test system: SF-539
[39] = test system: SK-MEL-2
[40] = test system: SK-MEL-5
[41] = test system: SK-OV-3
[42] = test system: SN12C
[43] = test system: SNB-19
[44] = test system: SNB-75
[45] = test system: SNB-78
[46] = test system: SR
[47] = test system: SW-620
[48] = test system: TK-10
[49] = test system: U-251
[50] = test system: UACC-257
[51] = test system: UACC-62
[52] = test system: UO-31
[53] = test system: XF498
[54] = test system: Malme-3M
[55] = test system: OVCAR-3
[56] = test system: RXF 393
[57] = test system: SK-MEL-28
[58] = test system: BT-549
[59] = test system: DU-145
[60] = test system: Hs-578T
[61] = test system: MCF7
[62] = test system: MDA-MB-231
[63] = test system: MDA-MB-435
[64] = test system: MDA-N
[65] = test system: NCI/ADR-RES
[66] = test system: PC-3
[67] = test system: T47D

`C=CCN1/C(=C2\SC(=S)N(c3ccc(C)cc3)C2=O)Sc2c1ncn(C)c2=O` was tested, and the GI50 [1] was 71.1 µM (inactive), the GI50 [2] was 51.1 µM (inactive) and the GI50 [3] was > 100 µM (inactive). For the same compound, the GI50 [4] was > 100 µM (inactive), the GI50 [5] was > 100 µM (inactive) and the GI50 [6] was > 100 µM (inactive). For the same compound, the GI50 [7] was 96.8 µM (inactive), the GI50 [8] was > 100 µM (inactive) and the GI50 [9] was > 100 µM (inactive). The GI50 [10] was > 100 µM (inactive), the GI50 [11] was 69 µM (inactive) and the GI50 [12] was 47.6 µM (inactive). The GI50 [13] was > 100 µM (inactive), the GI50 [14] was greater than 100 µM and the GI50 [15] was 83.4 µM (inactive). The GI50 [16] was 69.2 µM (inactive), the GI50 [17] was > 100 µM (inactive) and the GI50 [18] was > 100 µM (inactive). For the same compound, the GI50 [19] was > 100 µM (inactive), the GI50 [20] was > 100 µM (inactive) and the GI50 [21] was > 100 µM (inactive). The GI50 [22] was > 100 µM (inactive), the GI50 [23] was > 100 µM (inactive) and the GI50 [24] was 59.7 µM (inactive). The GI50 [25] was > 100 µM (inactive), the GI50 [26] was > 100 µM (inactive) and the GI50 [27] was > 100 µM (inactive). The GI50 [28] was 78.5 µM (inactive), the GI50 [29] was > 100 µM (inactive) and the GI50 [30] was > 100 µM (inactive). For the same compound, the GI50 [31] was 46.7 µM (inactive), the GI50 [32] was 94.2 µM (inactive) and the GI50 [33] was > 100 µM (inactive). The GI50 [34] was 95.1 µM (inactive), the GI50 [35] was > 100 µM (inactive) and the GI50 [36] was > 100 µM (inactive). The GI50 [37] was 90.8 µM (inactive), the GI50 [38] was 90.8 µM (inactive) and the GI50 [39] was > 100 µM (inactive). The GI50 [40] was 38.4 µM (inactive), the GI50 [41] was > 100 µM (inactive) and the GI50 [42] was > 100 µM (inactive). For the same compound, the GI50 [43] was > 100 µM (inactive), the GI50 [44] was 40.7 µM (inactive) and the GI50 [45] was 90.6 µM (inactive). For the same compound, the GI50 [46] was 84.7 µM (inactive), the GI50 [47] was > 100 µM (inactive) and the GI50 [48] was > 100 µM (inactive). The GI50 [49] was > 100 µM (inactive), the GI50 [50] was > 100 µM (inactive) and the GI50 [51] was > 100 µM (inactive). For the same compound, the GI50 [52] was > 100 µM (inactive) and the GI50 [53] was 73.5 µM (inactive).
With `COC1CCCCN1C(=O)c1ccccc1` (stereo not drawn) the GI50 [1] was > 25.3 µM (inactive), the GI50 [3] was > 25.3 µM (inactive) and the GI50 [4] was > 25.3 µM (inactive). For the same compound, the GI50 [5] was > 25.3 µM (inactive), the GI50 [9] was > 25.3 µM (inactive) and the GI50 [12] was > 25.3 µM (inactive). For the same compound, the GI50 [13] was > 25.3 µM (inactive), the GI50 [14] was greater than 25.3 µM and the GI50 [15] was > 25.3 µM (inactive). For the same compound, the GI50 [17] was > 25.3 µM (inactive), the GI50 [19] was > 25.3 µM (inactive) and the GI50 [20] was > 25.3 µM (inactive). For the same compound, the GI50 [21] was > 25.3 µM (inactive), the GI50 [22] was > 25.3 µM (inactive) and the GI50 [23] was > 25.3 µM (inactive). The GI50 [25] was > 25.3 µM (inactive), the GI50 [27] was > 25.3 µM (inactive) and the GI50 [54] was > 25.3 µM (inactive). For the same compound, the GI50 [28] was > 25.3 µM (inactive), the GI50 [29] was > 25.3 µM (inactive) and the GI50 [55] was > 25.3 µM (inactive). For the same compound, the GI50 [32] was > 25.3 µM (inactive), the GI50 [33] was > 25.3 µM (inactive) and the GI50 [56] was > 25.3 µM (inactive). For the same compound, the GI50 [36] was > 25.3 µM (inactive), the GI50 [57] was > 25.3 µM (inactive) and the GI50 [39] was > 25.3 µM (inactive). For the same compound, the GI50 [40] was > 25.3 µM (inactive), the GI50 [41] was > 25.3 µM (inactive) and the GI50 [42] was > 25.3 µM (inactive). The GI50 [43] was > 25.3 µM (inactive), the GI50 [44] was > 25.3 µM (inactive) and the GI50 [45] was > 25.3 µM (inactive). The GI50 [46] was > 25.3 µM (inactive), the GI50 [47] was > 25.3 µM (inactive) and the GI50 [48] was > 25.3 µM (inactive). For the same compound, the GI50 [49] was > 25.3 µM (inactive), the GI50 [51] was > 25.3 µM (inactive) and the GI50 [52] was > 25.3 µM (inactive).
In the case of `Nc1nc(N)c(CCCCc2ccccc2)c(N)n1`, the GI50 [1] is reported as > 100 µM (inactive), the GI50 [2] is reported as > 100 µM (inactive) and the GI50 [3] is reported as > 100 µM (inactive). For the same compound, the GI50 [4] was > 100 µM (inactive), the GI50 [58] was > 100 µM (inactive) and the GI50 [5] was > 100 µM (inactive). The GI50 [6] was > 100 µM (inactive), the GI50 [7] was > 100 µM (inactive) and the GI50 [8] was > 100 µM (inactive). The GI50 [9] was > 100 µM (inactive), the GI50 [10] was > 100 µM (inactive) and the GI50 [59] was > 100 µM (inactive). For the same compound, the GI50 [11] was > 42.8 µM (inactive), the GI50 [12] was > 100 µM (inactive) and the GI50 [13] was > 100 µM (inactive). The GI50 [14] was greater than 100 µM, the GI50 [15] was > 100 µM (inactive) and the GI50 [16] was > 100 µM (inactive). For the same compound, the GI50 [17] was > 100 µM (inactive), the GI50 [18] was > 100 µM (inactive) and the GI50 [60] was > 100 µM (inactive). The GI50 [19] was > 100 µM (inactive), the GI50 [20] was > 100 µM (inactive) and the GI50 [21] was > 100 µM (inactive). For the same compound, the GI50 [22] was > 100 µM (inactive), the GI50 [23] was > 100 µM (inactive) and the GI50 [24] was > 100 µM (inactive). For the same compound, the GI50 [25] was > 100 µM (inactive), the GI50 [26] was > 100 µM (inactive) and the GI50 [61] was > 100 µM (inactive). The GI50 [62] was > 100 µM (inactive), the GI50 [63] was > 100 µM (inactive) and the GI50 [64] was > 100 µM (inactive). For the same compound, the GI50 [27] was > 100 µM (inactive), the GI50 [54] was > 100 µM (inactive) and the GI50 [28] was > 100 µM (inactive). For the same compound, the GI50 [29] was > 100 µM (inactive), the GI50 [30] was > 100 µM (inactive) and the GI50 [31] was > 100 µM (inactive). For the same compound, the GI50 [65] was > 100 µM (inactive), the GI50 [55] was > 100 µM (inactive) and the GI50 [32] was > 100 µM (inactive). For the same compound, the GI50 [33] was > 100 µM (inactive), the GI50 [34] was > 100 µM (inactive) and the GI50 [66] was > 100 µM (inactive). The GI50 [35] was > 100 µM (inactive), the GI50 [56] was > 100 µM (inactive) and the GI50 [36] was > 100 µM (inactive). The GI50 [37] was > 100 µM (inactive), the GI50 [38] was > 100 µM (inactive) and the GI50 [57] was > 100 µM (inactive). For the same compound, the GI50 [39] was > 100 µM (inactive), the GI50 [40] was > 100 µM (inactive) and the GI50 [41] was > 100 µM (inactive). The GI50 [42] was > 100 µM (inactive), the GI50 [43] was > 100 µM (inactive) and the GI50 [44] was 60.7 µM (inactive). For the same compound, the GI50 [46] was > 100 µM (inactive), the GI50 [47] was > 100 µM (inactive) and the GI50 [67] was > 100 µM (inactive). For the same compound, the GI50 [48] was > 100 µM (inactive), the GI50 [49] was > 100 µM (inactive) and the GI50 [50] was > 100 µM (inactive). For the same compound, the GI50 [51] was > 100 µM (inactive), the GI50 [52] was > 100 µM (inactive) and the GI50 [53] was > 100 µM (inactive).
